Converted amounts (≈) assume the structure as drawn.
Legend:
[1] = system: A549 lung cancer cell line; assay: MTT cytotoxicity assay on A549 lung cancer cells; type: cell-based, human; conditions: for IC50: Homo sapiens, A549 cells, MTT, mean ± SD; for SI: selectivity index: L929 versus A549
Procedure: (§1) The synthesized final compounds (2a–2o) were initially evaluated for their cytotoxic effects to assess their anticancer activity against A549 lung cancer cells. The healthy cell line L929 (mouse fibroblast cell line) was also used to determine the selective antiproliferative properties of the compounds.
(§2) The human lung cancer cell line A549 and mouse fibroblast cell line L929 were used to evaluate the cytotoxicity of the compounds. Cells propagated under the specified conditions were cultured in 96-well plates at 5 × 10^3 cells/well. […] At the end of the incubation period, cell viability was determined by measuring the absorbance of the purple color formed by the breakdown of the MTT dye at 540 nm. Half-maximal inhibitory concentrations (IC50) were determined based on the tested concentrations of the compounds. The tests were triplicated.[38] The MTT assay for cytotoxicity of compounds was determined according to previously published procedures.[39],[40]
(§3) The concentration that inhibits 50% of the cell population was calculated as IC50 using GraphPad Prism 9.0 statistical software program, and standard deviation values were analyzed. Data are expressed as mean ± SD. Comparisons were made using one-way ANOVA for continuous variables with normal distribution, and Tukey’s test was used for post hoc analysis of group differences. p < 0.05 was considered statistically significant.
(§4) The cell viability value of the control group was considered 100%, and all viability values were calculated using the formula below. The experiment was performed in 3 replicates. [drawing 2]

[2] = system: L929 (mouse fibroblast cell line); assay: MTT cytotoxicity assay on L929 healthy cells; type: cell-based; conditions: mean ± SD
Procedure: as §1, §2, §3, §4

MMP-9 enzyme = target: T1, MMP-9 enzyme (Homo sapiens, UniProt P14780); assay: MMP-9 enzyme inhibition, colorimetric kit; type: biochemical; conditions: mean ± SD
T1 construct: purchased Enzo Life Sciences Inc. (Farmingdale, NY, USA)
Procedure: Compounds (2a–2o) were tested to determine their MMP-9 enzyme inhibition potential. The compounds were tested at a concentration of 100 μM, and the standard molecule NNGH at a concentration of 1.3 μM.
MMP-9 inhibition was assessed using a colorimetric kit from Enzo Life Sciences Inc. (Farmingdale, NY, USA), following procedures similar to those described in previous studies.[25],[26] A thiopeptide was used as a chromogenic substrate (Ac-PLG-[2-mercapto-4-methyl-pentanoyl]-LG-OC2H5). 2-Nitro-5-thiobenzoic acid, formed by the reaction of the sulfhydryl group produced as a result of hydrolysis of the thioester by the MMP-9 enzyme and then reaction with DTNB [5,5′-dithiobis(2-nitrobenzoic acid), Ellman’s reagent], gives absorbance at 412 nm in a microplate reader (BioTek, PowerWave, Gen5 software, Winooski, VT, USA). Based on these absorptions, MMP-9 inhibition concentrations were determined. The assays were performed in triplicate. NNGH (N-isobutyl-N-(4-methoxyphenylsulfonyl)glycyl hydroxamic acid) was used as a control inhibitor. Data were shown as mean ± SD. The inhibitor % remaining activity of MMPs was calculated using the following equation:
Inhibitor% activity remaining = (V inhibitor/V control) × 100.
The inhibition (percent) of MMPs was calculated using the following equation: [drawing 1]

A549 cells [3] = assay: Mitochondrial membrane potential (JC-1) by flow cytometry; type: cell-based, human; conditions: IC50 dose, JC-1
Description: The mitochondrial membrane potential provides information about the state of electrons during ATP production through oxidative phosphorylation, which is essential for cellular viability. Mitochondrial dysfunction occurs when this electrical regulation is disturbed and can occur in various diseases and the process of apoptosis.[23] […] Compounds 2m, 2g, and 2c followed this, with depolarization levels exceeding 21%. The mitochondrial dysfunction in compound 2m can be considered a contributing factor to apoptosis.
Cell staining with JC-1 was performed according to the manufacturer’s recommendations for the BD , Pharmingen Flow Cytometry Kit. […] Compounds were applied at IC50 doses of no more than 1 × 10^6/mL per well in 6-well plates. After treatment, each cell suspension was transferred to a 15 mL polystyrene centrifuge tube, the cells were centrifuged at 400g for 5 min, and the supernatant was removed. 0.5 mL of freshly prepared working solution was added to each pellet, and the solution was vortexed. The test cells were soaked in JC-1 working solution at 37 °C for 10–15 min, and the cells were washed twice. After centrifugation at 400g for 5 min, each cell pellet was suspended in 0.5 mL of 1X assay buffer and vortexed. The cells were then analyzed by flow cytometer.
(§5) The apoptotic results (Annexin V-FITC, Caspase 3, JC-1) were evaluated by flow cytometry using FACS Diva Version 6.1.1. software, and the apoptotic cells were determined as the percentage of cells.

caspase-3 in A549 cells = assay: Caspase-3 activation; type: cell-based, human; conditions: 24 h
Description: Caspases can take part in the cell death mechanism through both intrinsic and extrinsic pathways, with caspase-3 being the first enzyme activated in the apoptosis process.[24] Activation of the caspase-3 enzyme by the compounds, indicated as caspase-3 positive, and inhibition, indicated as caspase-3 negative, are presented in percentage terms in Table 5.
A Spectrofluorometric Caspase-3 assay kit (BD Pharmingen, Franklin Lakes, NJ) was used for determining Caspase-3 activation by measuring the caspase-3 or DEVD-cleaving activity. Initially, A549 cells at a concentration of 1 × 10^6 cells/mL underwent a washing process using phosphate-buffered saline (PBS). Subsequently, they were suspended in a cold solution known as cell lysis buffer and kept on ice for a duration of 30 min. […] In each reaction, a mixture of […] of diluted Ac DEVD-AMC (a synthetic tetrapeptide fluorogenic substrate used to measure caspase-3 activity) and 0.2 mL of 1x HEPES buffer was added to a well. Then, […] of cell lysate was introduced into each well/reaction. The reaction mixtures were incubated at 37 °C for 1 h. The amount of AMC released from Ac-DEVD-AMC was measured by using a microplate reader (PerkinElmer/Victor/X3) with an excitation wavelength of 380 nm and an emission wavelength of 460 nm. Apoptotic cell lysates containing active caspase-3 produced significant emissions compared to controls. In addition, the AMC emission of nonapoptotic control cell lysates was taken as 100%, and the emission of other cell lysates was measured relative to the emission of control cells. All experiments were repeated in duplicate. Active compounds, which are the most cytotoxic compounds, were evaluated for caspase-3 activation using previously published procedures.[40],[44]
as §5

A549 cells [4] = assay: Annexin V-FITC/propidium iodide apoptosis detection by flow cytometry; type: cell-based, human; conditions: IC50 dose, 24 h
Procedure: To determine whether the antiproliferative effects of the compounds on the A549 cell line proceed through the apoptotic or necrotic pathway, the assay was performed with Annexin V-FITC/propidium iodide dyes in a flow cytometry device. […] At least 10,000 cells were analyzed, and quadrant analysis was performed. The results are presented as early apoptotic cells, late apoptotic cells, viable cells, and necrotic cells in Table 3, and as a diagram in Figure 1. In control cells, the number of viable cells was 92.04%, necrotic cells were 1.16%, early apoptotic cells were 3.43%, and late apoptotic cells were 3.28%. […] Among the compounds, 2m was the most apoptosis-inducing compound, with 14.99% early apoptotic and 10.63% late apoptotic cell percentages. […] This compound was followed by compound 2c with a 13.79% early apoptotic cells and 4.03% late apoptotic cells. Among the compounds, compound 2o induced early apoptosis the least (1.87%) and necrosis the most (3.10%). […] Nonapoptotic cell death methods, such as necroptosis and pyroptosis, can be considered for the aforementioned compounds.
The compounds were treated with A549 cells at IC50 doses, and early and late apoptosis, necrosis, and viable cell ratios were determined as percentages. Cells were seeded at 37 °C in humidified air containing 5% CO2 with 10^5 cells/plate in each well. A549 cells were collected, washed twice with ice-cold PBS, and resuspended in 100 μL of binding buffer. Five μL (5 μg/mL) of Annexin V-FITC and PI were added to the cells and incubated for 15 min in the dark at room temperature (20–25 °C). Then, 400 μL of binding buffer was added to the mixture samples and analyzed on a flow cytometer. Quadrant analyses were also presented.[41] Compounds 2a, 2b, 2c, 2j, 2m, and 2o, with a satisfactory cytotoxic profile, were examined via flow cytometry to assess the apoptosis/necrosis cell ratio using previously published procedures.[42]
as §5

T1 sequence (P14780 107-444 limits assumed): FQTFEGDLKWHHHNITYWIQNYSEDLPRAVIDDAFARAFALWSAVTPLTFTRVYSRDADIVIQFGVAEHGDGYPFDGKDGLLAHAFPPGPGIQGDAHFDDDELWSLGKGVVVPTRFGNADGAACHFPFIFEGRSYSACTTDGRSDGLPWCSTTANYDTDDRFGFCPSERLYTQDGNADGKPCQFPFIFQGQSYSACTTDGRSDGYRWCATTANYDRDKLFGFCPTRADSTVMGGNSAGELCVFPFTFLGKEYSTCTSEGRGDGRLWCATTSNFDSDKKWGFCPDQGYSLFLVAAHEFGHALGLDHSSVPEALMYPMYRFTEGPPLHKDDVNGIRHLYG

**Q.** For C(=NNc1nc(-c2ccc(-c3ccccc3)cc2)cs1)c1cccnc1 [Compound 2h, 4-([1,1’-Biphenyl]-4-yl)-2-(2-(pyridin-3-ylmethylene)hydrazinyl)thiazole], which IC50 [1] is on record?
**A.** 9.93 ± 0.42 µg/mL (≈ 27.9 µM)

**Q.** What about the “SI: selectivity index” value [1] of the same molecule?
**A.** 1.53

**Q.** What about the IC50 [2] of the same molecule?
**A.** 15.2 ± 0.53 µg/mL (≈ 42.7 µM)

**Q.** Which IC50 [1] does the source give for Oc1ccc(-c2csc(NN=Cc3cccnc3)n2)cc1O [Compound 2i, 4-(2-(2-(Pyridin-3-ylmethylene)hydrazinyl)thiazol-4-yl)benzene-1,2-diol] here?
**A.** 7.2 ± 0.95 µg/mL (≈ 23.1 µM)

**Q.** And the inhibition at 100 µM (MMP-9 enzyme; compounds at 100 μM)?
**A.** 40.6 ± 3.01%

**Q.** What about the IC50 [2] of the same molecule?
**A.** > 250 µg/mL

**Q.** With Clc1ccc(-c2csc(NN=Cc3cccnc3)n2)cc1Cl [Compound 2j, 4-(3,4-Dichlorophenyl)-2-(2-(pyridin-3-ylmethylene)hydrazinyl)thiazole] as the molecule, how does the “% Mitochondrial membrane depolarized cells” value (A549 cells [3]) read?
**A.** 15.40%

**Q.** And the “% Mitochondrial membrane polarized cells” value (A549 cells [3])?
**A.** 84.75%

**Q.** What about the “% Caspase-3 negative cells” value (caspase-3 in A549 cells) of the same molecule?
**A.** 97.47%

**Q.** What about the “% Caspase-3 positive cells” value (caspase-3 in A549 cells) of the same molecule?
**A.** 0.96%

**Q.** What about the IC50 [1] of the same molecule?
**A.** 6.58 ± 0.35 µg/mL (≈ 18.8 µM)

**Q.** What about the “SI: selectivity index” value [1] of the same molecule?
**A.** 1.48

**Q.** And the IC50 [2]?
**A.** 9.76 ± 0.45 µg/mL (≈ 27.9 µM)

**Q.** And the Q1-LL viable cells (A549 cells [4])?
**A.** 91.05%

**Q.** What about the “Q1-LR early apoptotic cells” value (A549 cells [4]) of the same molecule?
**A.** 3.96%

**Q.** And the Q1-UL necrotic cells (A549 cells [4])?
**A.** 1.68%

**Q.** And the “Q1-UR late apoptotic cells” value (A549 cells [4])?
**A.** 3.31%

**Q.** What about the “apoptosis induction, result in words” value (A549 cells [4]) of the same molecule?
**A.** did not significantly induce apoptosis

**Q.** For CS(=O)(=O)c1ccc(-c2csc(NN=Cc3ccncc3)n2)cc1 [Compound 2l, 4-(4-(Methylsulfonyl)phenyl)-2-(2-(pyridin-4-ylmethylene)hydrazinyl)thiazole], which IC50 [1] is on record?
**A.** 4.7 ± 0.3 µg/mL (≈ 13.1 µM)

**Q.** What about the “SI: selectivity index” value [1] of the same molecule?
**A.** 1.43

**Q.** And the IC50 [2]?
**A.** 6.74 ± 0.41 µg/mL (≈ 18.8 µM)

**Q.** How did the “% Mitochondrial membrane depolarized cells” value (A549 cells [3]) turn out when Clc1ccc(-c2csc(NN=Cc3ccncc3)n2)cc1Cl [Compound 2o, 4-(3,4-Dichlorophenyl)-2-(2-(pyridin-4-ylmethylene)hydrazinyl)thiazole] was run?
**A.** 12.85%

**Q.** What about the “% Mitochondrial membrane polarized cells” value (A549 cells [3]) of the same molecule?
**A.** 87.73%

**Q.** And the “% Caspase-3 negative cells” value (caspase-3 in A549 cells)?
**A.** 25.00%

**Q.** And the “% Caspase-3 positive cells” value (caspase-3 in A549 cells)?
**A.** 0.00%

**Q.** And the IC50 [1]?
**A.** 5.04 ± 0.31 µg/mL (≈ 14.4 µM)

**Q.** And the IC50 [2]?
**A.** 51.9 ± 0.58 µg/mL (≈ 149 µM)

**Q.** And the Q1-LL viable cells (A549 cells [4])?
**A.** 87.11%

**Q.** And the “Q1-LR early apoptotic cells” value (A549 cells [4])?
**A.** 1.87%

**Q.** And the Q1-UL necrotic cells (A549 cells [4])?
**A.** 3.10%

**Q.** What about the “Q1-UR late apoptotic cells” value (A549 cells [4]) of the same molecule?
**A.** 7.92%

**Q.** For COc1ccc(S(=O)(=O)N(CC(=O)NO)CC(C)C)cc1 [NNGH, N-isobutyl-N-(4-methoxyphenylsulfonyl)glycyl hydroxamic acid, reference compound], which MMP-9 inhibition % (MMP-9 enzyme; standard at 1.3 μM) is on record?
**A.** 93.56 ± 1.78%
